The test system of test [1] is C33A (HPV negative) human cervical cell line. Kind of test: Antiproliferative MTT assay, C33A. It counts as cell-based. As to the method: (§1) Antiproliferative effect of the isolated compounds were determined in vitro using SiHa (HPV 16+), HeLa (HPV 18+), C33A (HPV negative) human cervical cell lines, NIH-3T3 mouse embryonic and MRC-5 human fibroblast cells by means of MTT ([3-(4,5-dimethylthiazol-2-yl)-2,5-diphenyltetrazolium bromide]) assay. Briefly, a limited number of human cancer cells (5000/well for SiHa and HeLa cells, 10,000/well in case of C33A cells) were seeded onto a 96-well microplate and became attached to the bottom of the well overnight. On the second day of the procedure, the test substances were added in two concentrations (10.0 and 30.0 µM) in order to obtain preliminary data and then the compounds were applied in serial dilution (applied final concentrations were: 0.1, 0.3, 1.0, 3.0, 10.0, 30.0 µM). Further details of the experiment were described in ref. [30]. All in vitro experiments were carried out on two 96-well dishes with at least five parallel wells [31].
(In general: Formazan colour is commonly taken as a measure of viable cells.)

Test [2] concerns NIH/3T3 (mouse embryonic fibroblast). Briefly: Antiproliferative MTT assay, NIH/3T3. It counts as cell-based. Conditions: for IC50: read-out: Calculated IC50 Values (μM) [95% CI]. As to the method:
as §1

Another test deals with MRC-5 (human fibroblast). Kind of test: Antiproliferative MTT assay, MRC-5. It counts as cell-based. Conditions: for IC50: read-out: Calculated IC50 Values (μM) [95% CI]. As to the method:
as §1

Test [3] has as its system SiHa cells. Briefly: Wound healing assay. The format is cell-based, human. As to the method:
In order to assess antimetastatic activity of the tested compound, wound healing assay was performed. The assay was done with specific wound healing assay chambers (Ibidi GmbH, Gräfelfing, Germany). SiHa cells were collected and 35,000 cells were seeded into both chambers of the insert. Cells were let to be attached to the plate surface during an overnight incubation at 37 °C in 5% CO2 atmosphere and then the inserts were removed. Cell debris was removed by a washing step with PBS. Test compounds were added to the wells in increasing concentrations in 2% FBS containing medium for 24 and 48 h. Migration of the cells into the wound site was visualized by phase-contrast inverted microscope (Axiovert 40, Zeiss, Thornwood, NY, USA). Images were taken with CCD camera at definite intervals and the migration of the cells was calculated as the ratio of wound closure by ImageJ software.

The test system of test [4] is HeLa (HPV 18+) human cervical cell line. Kind of test: Antiproliferative MTT assay, HeLa. The format is cell-based. Conditions: Homo sapiens. As to the method:
as §1

Test [5] has as its system SiHa (HPV 16+) human cervical cell line. Kind of test: Antiproliferative MTT assay, SiHa. The format is cell-based. The following applies: for IC50: read-out: Calculated IC50 Values (μM) [95% CI]. As to the method: as §1
Test [6] concerns SiHa cells. Kind of test: Cell cycle analysis by flow cytometry. The format is cell-based, human. The following applies: 48 or 72 h treatment. As to the method:
Cell cycle analysis was performed as described in [32, 33].

Where [7] appears, read: Homo sapiens, C-33-A, read-out: Growth Inhibition Values (%) ± SEM.

Like-named read-outs stand apart in the source and are kept apart here.

As to `C=C1C(=O)OC2C=C(C)C(OC(C)=O)CC3OC3(C)CC(OC(=O)CC(C)C)C12` (centres unmarked) [Compound 6, Lobatolide C], the IC50 is 3.2 to 3.6 µM in test [1] (Homo sapiens, C-33-A, read-out: Calculated IC50 Values (μM) [95% CI], C33A, MTT); 3.53 µM in test [1] (read-out: Calculated IC50 Values (μM) [95% CI], C33A, MTT); more than 11 µM in test [2] (Mus musculus, NIH3T3, NIH/3T3, MTT); 11.2 µM in test [2] (NIH/3T3, MTT); more than 11 µM with MRC-5 (human fibroblast) (Homo sapiens, MRC5, MRC-5, MTT); 11.9 µM in the test with MRC-5 (human fibroblast) (MRC-5, MTT). In addition, the half-maximal inhibitory concentration (IC50) was 15.7 µM in test [4] (read-out: Calculated IC50 Values (μM) [95% CI]), 3.2 to 3.6 µM in test [5] (Homo sapiens) and 3.24 µM in test [5]. The inhibition at 10 µM in test [1] (setting [7]) was 96.55 ± 0.22%; in test [2] (Mus musculus, NIH3T3, NIH/3T3, 10 μM, MTT, read-out: Growth Inhibition Values (%) ± SEM) it was 40.7 ± 2.92%; with MRC-5 (human fibroblast) (Homo sapiens, MRC5, MRC-5, 10 μM, MTT, read-out: Growth Inhibition Values (%) ± SEM), less than 20%; in test [4] (10 μM, read-out: Growth Inhibition Values (%) ± SEM), less than 20%; in test [5] (Homo sapiens, 10 μM, read-out: Growth Inhibition Values (%) ± SEM), 84.2 ± 2.32%. The inhibition at 30 µM came to 96.72 ± 0.33% in test [1] (setting [7]); 96.8 ± 0.25% in test [2] (Mus musculus, NIH3T3, NIH/3T3, 30 μM, MTT, read-out: Growth Inhibition Values (%) ± SEM); 73 ± 1.64% in the test with MRC-5 (human fibroblast) (Homo sapiens, MRC5, MRC-5, 30 μM, MTT, read-out: Growth Inhibition Values (%) ± SEM); 91.9 ± 1.23% in test [4] (30 μM, read-out: Growth Inhibition Values (%) ± SEM); 84.8 ± 1.89% in test [5] (Homo sapiens, 30 μM, read-out: Growth Inhibition Values (%) ± SEM). Besides, the Wound closure in the test on SiHa cells [3] (1.5 µM, 48 h (control 70%)) is recorded as 47%; in the test with SiHa cells [3] (3 µM, 24 h (control 30%)), 12%; in the test on SiHa cells [3] (3 µM, 48 h (control 70%)), 18%. The Cell cycle distribution entry in the test with SiHa cells [6] is recorded as “significant concentration-dependent accumulation of cells in the S phase”.

For orientation: IC50 means the midpoint of a concentration-inhibition curve. The inhibition is the change of the read-out against control, counted positive when it falls.

The record behind these values is article PMC8704432, “Isolation, Structure Determination of Sesquiterpenes from Neurolaena lobata and Their Antiproliferative, Cell Cycle Arrest-Inducing and Anti-Invasive Properties against Human Cervical Tumor Cells” (Pharmaceutics, 2021).
